Assay results taken from patent EP0908457B1, “3-(1,2-benzisothiazol- and isoxazol-5-Y1)-2,4(1H,3H)-pyrimidinedione or thione and 3-(1,2-benzisothiazol- and isoxazol-5-y1)-4(3H)-pyrimidinone or thione herbicidal agents” (BASF AKTIENGESELLSCHAFT, priority 1997, dated 1999).

Experiments:
[1] = tested on: Echinochloa oryzoides (Ard.) Fritsch.; assay: Preemergence weed control under flooded paddy conditions, ECHORC (Watergrass (Calif.)); assay type: in vivo; conditions: flooded paddy; for ECHORC: preemergence weeds, herbicidal effect rating 0-9, three to four weeks after treatment; for herbicidal effect rating, ECHORC: preemergence, rated three to four weeks after treatment; as to herbicidal effect rating, ECHORC: meaning of each grade not given here
Cyperus iria [2] = assay: Preemergence weed control under flooded paddy conditions, CYPIR (Rice Flatsedge); assay type: in vivo; conditions: flooded paddy; for CYPIR: preemergence weeds, herbicidal effect rating 0-9, three to four weeks after treatment; for herbicidal effect rating, CYPIR: preemergence, rated three to four weeks after treatment; as to herbicidal effect rating, CYPIR: meaning of each grade not given here
[3] = tested on: Cyperus serotinus, Rottb.; assay: Preemergence weed control under flooded paddy conditions, CYPSE (Flatsedge); assay type: in vivo; conditions: for CYPSE: preemergence weeds, herbicidal effect rating 0-9, three to four weeks after treatment; for herbicidal effect rating, CYPSE: preemergence, rated three to four weeks after treatment; as to herbicidal effect rating, CYPSE: meaning of each grade not given here
[4] = tested on: Monochoria vaginalis, Presl.; assay: Preemergence weed control under flooded paddy conditions, MOOVA (Monochoria); assay type: in vivo; conditions: flooded paddy; for MOOVA: preemergence weeds, herbicidal effect rating 0-9, three to four weeks after treatment; for herbicidal effect rating, MOOVA: preemergence, rated three to four weeks after treatment; as to herbicidal effect rating, MOOVA: meaning of each grade not given here
Sagittaria pygmaea, L. [5] = assay: Preemergence weed control under flooded paddy conditions, SAGPY (Arrowhead (Pygmaea)); assay type: in vivo; conditions: flooded paddy; for SAGPY: preemergence weeds, herbicidal effect rating 0-9, three to four weeks after treatment; for herbicidal effect rating, SAGPY: preemergence, rated three to four weeks after treatment; as to herbicidal effect rating, SAGPY: meaning of each grade not given here
[6] = tested on: Echinochloa oryzoides (Ard.) Fritsch.; assay: Postemergence weed control under flooded paddy conditions, ECHORC (Watergrass (Calif.)); assay type: in vivo; conditions: rated three to four weeks after treatment
Cyperus iria [7] = assay: Postemergence weed control under flooded paddy conditions, CYPIR (Rice Flatsedge); assay type: in vivo; conditions: rated three to four weeks after treatment
[8] = tested on: Cyperus serotinus, Rottb.; assay: Postemergence weed control under flooded paddy conditions, CYPSE (Flatsedge); assay type: in vivo; conditions: rated three to four weeks after treatment
[9] = tested on: Monochoria vaginalis, Presl.; assay: Postemergence weed control under flooded paddy conditions, MOOVA (Monochoria); assay type: in vivo; conditions: rated three to four weeks after treatment
Sagittaria pygmaea, L. [10] = assay: Postemergence weed control under flooded paddy conditions, SAGPY (Arrowhead (Pygmaea)); assay type: in vivo; conditions: rated three to four weeks after treatment
[11] = tested on: Oryza sativa, (L.) Tebonnet; assay: Rice tolerance to post-transplant applications under flooded paddy conditions (Example 187), ORYSAT (Rice, Tebonnet); conditions: for ORYSAT: herbicidal effect rating 0-9, three to four weeks after treatment; for herbicidal effect rating, ORYSAT (rice tolerance): rated three to four weeks after treatment
[12] = tested on: Oryza sativa, (L.) Tebonnet; assay: Rice tolerance to post-transplant applications under flooded paddy conditions (Example 188), ORYSAT (Rice, Tebonnet); conditions: rated three to four weeks after treatment

SMILES: CCCCC(=O)c1nsc2ccc(-n3c(=O)cc(C(F)(F)F)n(C)c3=O)cc12 [Example 431, 2,4(1H,3H)-Pyrimidinedione, 1-methyl-6-(trifluoromethyl)-3-(3-valeryl-1,2-benzisothiazol-5-yl)-]
- ECHORC ([1]; 0.0320 kg/ha): 8.0
- ECHORC ([1]; 0.0620 kg/ha): 9.0
- ECHORC ([1]; 0.1250 kg/ha): 8.5
- ECHORC ([1]; 0.2500 kg/ha): 9.0
- CYPIR (Cyperus iria [2]; 0.0320 kg/ha): 8.0
- CYPIR (Cyperus iria [2]; 0.0620 kg/ha): 9.0
- CYPIR (Cyperus iria [2]; 0.1250 kg/ha): 9.0
- CYPIR (Cyperus iria [2]; 0.2500 kg/ha): 9.0
- CYPSE ([3]; 0.0320 kg/ha): 0.0
- CYPSE ([3]; 0.0620 kg/ha): 4.0
- CYPSE ([3]; 0.1250 kg/ha): 7.5
- CYPSE ([3]; 0.2500 kg/ha): 9.0
- MOOVA ([4]; 0.0320 kg/ha): 9.0
- MOOVA ([4]; 0.0620 kg/ha): 9.0
- MOOVA ([4]; 0.1250 kg/ha): 9.0
- MOOVA ([4]; 0.2500 kg/ha): 9.0
- SAGPY (Sagittaria pygmaea, L. [5]; 0.0320 kg/ha): 3.5
- SAGPY (Sagittaria pygmaea, L. [5]; 0.0620 kg/ha): 5.5
- SAGPY (Sagittaria pygmaea, L. [5]; 0.1250 kg/ha): 7.5
- SAGPY (Sagittaria pygmaea, L. [5]; 0.2500 kg/ha): 9.0
- herbicidal effect rating, ECHORC ([6]; Rate 0.0320 kg/ha): 7.0
- herbicidal effect rating, ECHORC ([6]; Rate 0.0620 kg/ha): 9.0
- herbicidal effect rating, ECHORC ([6]; Rate 0.1250 kg/ha): 9.0
- herbicidal effect rating, ECHORC ([6]; Rate 0.2500 kg/ha): 9.0
- herbicidal effect rating, CYPIR (Cyperus iria [7]; Rate 0.0320 kg/ha): 4.0
- herbicidal effect rating, CYPIR (Cyperus iria [7]; Rate 0.0620 kg/ha): 7.0
- herbicidal effect rating, CYPIR (Cyperus iria [7]; Rate 0.1250 kg/ha): 9.0
- herbicidal effect rating, CYPIR (Cyperus iria [7]; Rate 0.2500 kg/ha): 9.0
- herbicidal effect rating, CYPSE ([8]; Rate 0.0320 kg/ha): 0.0
- herbicidal effect rating, CYPSE ([8]; Rate 0.0620 kg/ha): 0.0
- herbicidal effect rating, CYPSE ([8]; Rate 0.1250 kg/ha): 0.0
- herbicidal effect rating, CYPSE ([8]; Rate 0.2500 kg/ha): 4.0
- herbicidal effect rating, MOOVA ([9]; Rate 0.0320 kg/ha): 6.0
- herbicidal effect rating, MOOVA ([9]; Rate 0.0620 kg/ha): 9.0
- herbicidal effect rating, MOOVA ([9]; Rate 0.1250 kg/ha): 9.0
- herbicidal effect rating, MOOVA ([9]; Rate 0.2500 kg/ha): 9.0
- herbicidal effect rating, SAGPY (Sagittaria pygmaea, L. [10]; Rate 0.0320 kg/ha): 0.0
- herbicidal effect rating, SAGPY (Sagittaria pygmaea, L. [10]; Rate 0.0620 kg/ha): 0.0
- herbicidal effect rating, SAGPY (Sagittaria pygmaea, L. [10]; Rate 0.1250 kg/ha): 0.0
- herbicidal effect rating, SAGPY (Sagittaria pygmaea, L. [10]; Rate 0.2500 kg/ha): 4.0
- ORYSAT ([11]; 0.0320 kg/ha): 3.5
- ORYSAT ([11]; 0.0620 kg/ha): 5.5
- ORYSAT ([11]; 0.1250 kg/ha): 5.0
- ORYSAT ([11]; 0.2500 kg/ha): 6.5
- herbicidal effect rating, ORYSAT (rice tolerance) ([12]; Rate 0.0320 kg/ha): 3.0
- herbicidal effect rating, ORYSAT (rice tolerance) ([12]; Rate 0.0620 kg/ha): 3.0
- herbicidal effect rating, ORYSAT (rice tolerance) ([12]; Rate 0.1250 kg/ha): 3.0
- herbicidal effect rating, ORYSAT (rice tolerance) ([12]; Rate 0.2500 kg/ha): 7.0

SMILES: CCc1ccc(-c2nsc3ccc(-n4c(=O)cc(C(F)(F)F)n(C)c4=O)cc23)cc1 [Example 5, 3-[3-(p-Ethylphenyl)-1,2-benzisothiazol-5-yl]-1-methyl-6-(trifluoromethyl)-2,4(1H,3H)-pyrimidinedione]
- herbicidal effect rating, ECHORC ([1]; 0.0313 kg/ha): 9.0
- herbicidal effect rating, ECHORC ([1]; 0.0625 kg/ha): 9.0
- herbicidal effect rating, ECHORC ([1]; 0.1250 kg/ha): 9.0
- herbicidal effect rating, ECHORC ([1]; 0.2500 kg/ha): 9.0
- herbicidal effect rating, ECHORC ([1]; 0.5000 kg/ha): 9.0
- herbicidal effect rating, CYPIR (Cyperus iria [2]; 0.0313 kg/ha): 9.0
- herbicidal effect rating, CYPIR (Cyperus iria [2]; 0.0625 kg/ha): 9.0
- herbicidal effect rating, CYPIR (Cyperus iria [2]; 0.1250 kg/ha): 9.0
- herbicidal effect rating, CYPIR (Cyperus iria [2]; 0.2500 kg/ha): 9.0
- herbicidal effect rating, CYPIR (Cyperus iria [2]; 0.5000 kg/ha): 9.0
- herbicidal effect rating, CYPSE ([3]; 0.0313 kg/ha): 0.0
- herbicidal effect rating, CYPSE ([3]; 0.0625 kg/ha): 2.0
- herbicidal effect rating, CYPSE ([3]; 0.1250 kg/ha): 6.0
- herbicidal effect rating, CYPSE ([3]; 0.2500 kg/ha): 8.0
- herbicidal effect rating, CYPSE ([3]; 0.5000 kg/ha): 7.0
- herbicidal effect rating, MOOVA ([4]; 0.0313 kg/ha): 9.0
- herbicidal effect rating, MOOVA ([4]; 0.0625 kg/ha): 9.0
- herbicidal effect rating, MOOVA ([4]; 0.1250 kg/ha): 9.0
- herbicidal effect rating, MOOVA ([4]; 0.2500 kg/ha): 9.0
- herbicidal effect rating, MOOVA ([4]; 0.5000 kg/ha): 9.0
- herbicidal effect rating, SAGPY (Sagittaria pygmaea, L. [5]; 0.0313 kg/ha): 0.0
- herbicidal effect rating, SAGPY (Sagittaria pygmaea, L. [5]; 0.0625 kg/ha): 0.0
- herbicidal effect rating, SAGPY (Sagittaria pygmaea, L. [5]; 0.1250 kg/ha): 2.0
- herbicidal effect rating, SAGPY (Sagittaria pygmaea, L. [5]; 0.2500 kg/ha): 7.0
- herbicidal effect rating, SAGPY (Sagittaria pygmaea, L. [5]; 0.5000 kg/ha): 7.0
- herbicidal effect rating, ECHORC ([6]; Rate 0.0313 kg/ha): 2.0
- herbicidal effect rating, ECHORC ([6]; Rate 0.0625 kg/ha): 7.0
- herbicidal effect rating, ECHORC ([6]; Rate 0.1250 kg/ha): 6.0
- herbicidal effect rating, ECHORC ([6]; Rate 0.2500 kg/ha): 9.0
- herbicidal effect rating, ECHORC ([6]; Rate 0.5000 kg/ha): 9.0
- herbicidal effect rating, CYPIR (Cyperus iria [7]; Rate 0.0313 kg/ha): 9.0
- herbicidal effect rating, CYPIR (Cyperus iria [7]; Rate 0.0625 kg/ha): 9.0
- herbicidal effect rating, CYPIR (Cyperus iria [7]; Rate 0.1250 kg/ha): 9.0
- herbicidal effect rating, CYPIR (Cyperus iria [7]; Rate 0.2500 kg/ha): 9.0
- herbicidal effect rating, CYPIR (Cyperus iria [7]; Rate 0.5000 kg/ha): 9.0
- herbicidal effect rating, CYPSE ([8]; Rate 0.0313 kg/ha): 0.0
- herbicidal effect rating, CYPSE ([8]; Rate 0.0625 kg/ha): 0.0
- herbicidal effect rating, CYPSE ([8]; Rate 0.1250 kg/ha): 0.0
- herbicidal effect rating, CYPSE ([8]; Rate 0.2500 kg/ha): 0.0
- herbicidal effect rating, CYPSE ([8]; Rate 0.5000 kg/ha): 0.0
- herbicidal effect rating, MOOVA ([9]; Rate 0.0313 kg/ha): 9.0
- herbicidal effect rating, MOOVA ([9]; Rate 0.0625 kg/ha): 9.0
- herbicidal effect rating, MOOVA ([9]; Rate 0.1250 kg/ha): 9.0
- herbicidal effect rating, MOOVA ([9]; Rate 0.2500 kg/ha): 9.0
- herbicidal effect rating, MOOVA ([9]; Rate 0.5000 kg/ha): 9.0
- herbicidal effect rating, SAGPY (Sagittaria pygmaea, L. [10]; Rate 0.0313 kg/ha): 2.0
- herbicidal effect rating, SAGPY (Sagittaria pygmaea, L. [10]; Rate 0.0625 kg/ha): 2.0
- herbicidal effect rating, SAGPY (Sagittaria pygmaea, L. [10]; Rate 0.1250 kg/ha): 4.0
- herbicidal effect rating, SAGPY (Sagittaria pygmaea, L. [10]; Rate 0.2500 kg/ha): 6.0
- herbicidal effect rating, SAGPY (Sagittaria pygmaea, L. [10]; Rate 0.5000 kg/ha): 8.0
- herbicidal effect rating, ORYSAT (rice tolerance) ([11]; 0.0313 kg/ha): 2.0
- herbicidal effect rating, ORYSAT (rice tolerance) ([11]; 0.0625 kg/ha): 3.0
- herbicidal effect rating, ORYSAT (rice tolerance) ([11]; 0.1250 kg/ha): 4.0
- herbicidal effect rating, ORYSAT (rice tolerance) ([11]; 0.2500 kg/ha): 5.0
- herbicidal effect rating, ORYSAT (rice tolerance) ([11]; 0.5000 kg/ha): 7.0
- herbicidal effect rating, ORYSAT (rice tolerance) ([12]; Rate 0.0313 kg/ha): 2.0
- herbicidal effect rating, ORYSAT (rice tolerance) ([12]; Rate 0.0625 kg/ha): 2.0
- herbicidal effect rating, ORYSAT (rice tolerance) ([12]; Rate 0.1250 kg/ha): 4.0
- herbicidal effect rating, ORYSAT (rice tolerance) ([12]; Rate 0.2500 kg/ha): 6.0
- herbicidal effect rating, ORYSAT (rice tolerance) ([12]; Rate 0.5000 kg/ha): 8.0
